Here are results for seven compounds from publication PMC8041318, “Folic Acid–Peptide Conjugates Combine Selective Cancer Cell Internalization with Thymidylate Synthase Dimer Interface Targeting” (Journal of Medicinal Chemistry, 2021).

In data set [1] the test system is RFC. To be noted: physiological conditions; read-out: Km toward RFC; cited from earlier work.
In data set [2] the test system is R1-11-FR2 and R5-FR12 HeLa cells. On the set-up: method as in PMID 19074442. To be noted: tritiated FA; cited from earlier work.
Data set [3] relates to IGROV-1 cells. Description: Cell growth inhibition, crystal violet dye assay. Type of data set: cell-based, human.
Source text: (§1) SQ was defined as the net growth inhibitory effect of the analogue combination divided by the sum of the net individual analogue effects on growth inhibition. A quotient of >1.1 indicates a synergistic effect, that between 0.9 and 1.1 indicates an additive effect, while a quotient of <0.9 indicates an antagonistic effect.
Data set [4] has as its system A2780 cells. Kind of data set: Cell growth inhibition, crystal violet dye assay (combination study). The format is cell-based, human.
Source text: as §1
The nature of data set [5]: in vitro. As to conditions: human, cytosol.
Procedure: Given the relevance of the concentration data, we checked whether the 30 min incubation time could represent a drawback in our analytical approach.
C13* human ovarian cancer cell lines (highly cisplatin-resistant) were prepared as reported for IGROV1 (LC-MS compartmentalization experiment).[65] […] After each interval, the cells (about 2 million per Petri plate) were washed three times with acid phosphate-buffered saline (PBS, pH 5.0), scraped, and counted. […] Each cytosol aliquot was diluted to a final volume of 500 μL with a 1:1 mixture of H2O with 0.1% HCOOH and ACN with 1 μM 1,4-dithiothreitol (DTT) as an antioxidant agent.
Sample analysis was carried out on an UltiMate 3000 UHPLC (Thermo Fisher Scientific) coupled to an Orbitrap Q-Exactive mass spectrometer. We used an Agilent Poroshell C18 column (120 Å, 100 × 2.1 mm^2, 2.7 μm ps) to separate the analytes, thermostated at 30 °C, with an injection volume of 20 μL per sample. […] C13* cells were assumed to have a spherical volume of 2 pL, whose 60% represented by cytoplasm. Thus, interpolated values were multiplied by the final dilution value (500 μL) and divided by the number of cells for each sample multiplied by a single-cell cytosol volume (1.2 pL).
For data set [6], the system named is DHFR. To be noted: IGROV-1, 5 μM, 48 h.
The subject of data set [7] is HSP90AA1. To be noted: IGROV-1, 5 μM, 48 h.
The test system of data set [8] is hTS.

Where only a bound is given, the exact number is not on record here.

Consider `Nc1nc2ncc(CNc3ccc(C(=O)N[C@@H](CCC(=O)O)C(=O)O)cc3)nc2c(=O)[nH]1` [FA, folic acid], for which the Km in data set [1] was more than 100 µM. For the same compound, the “ratio of concentrations between vesicular and cytosolic fractions” value in data set [2] is on record as 10.8.

For the compound `[NH2][Pt]([NH2])([Cl])[Cl]` [cDDP, cisplatin], the “% Growth inhibition, single compound” value is 40.3% in data set [3] (cDDP 1µM); 44.9% in data set [3] (cDDP 2µM); 48.8% in data set [3] (cDDP 5µM); 37.3% in data set [4] (cDDP 1µM); 49.1% in data set [4] (cDDP 2µM); 78.6% in data set [4] (cDDP 5µM).

For `Cc1nc2ccc(CN(C)c3ccc(C(=O)N[C@@H](CCC(=O)O)C(=O)O)s3)cc2c(=O)[nH]1` [raltitrexed], the “% Growth inhibition, single compound” value in data set [3] (RTX 10nM) stood at 34.5%; in data set [3] (RTX 20nM), 29.5%; in data set [4] (RTX 10nM) it was 56.8%; in data set [4] (RTX 20nM), 59.9%.

For the compound `CC(C)C[C@H](NC(=O)CC[C@H](NC(=O)c1ccc(NCc2cnc3nc(N)[nH]c(=O)c3n2)cc1)C(=O)O)C(=O)N[C@@H](CO)C(=O)N[C@@H](CS)C(=O)N[C@@H](CCC(N)=O)C(=O)N[C@@H](CC(C)C)C(=O)N[C@@H](Cc1ccc(O)cc1)C(=O)N[C@@H](CCC(N)=O)C(=O)N[C@@H](CCCNC(=N)N)C(=O)O` [FA–LR], the half-life in data set [5] was found to be 3.33 h.

With `CC(C)C[C@H](NC(=O)CC[C@H](NC(=O)c1ccc(NCc2cnc3nc(N)nc(O)c3n2)cc1)C(=O)O)C(=O)N[C@@H](CO)C(=O)N[C@@H](CS)C(=O)N[C@H](CCC(N)=O)C(=O)N[C@@H](CC(C)C)C(=O)N[C@@H](Cc1ccc(O)cc1)C(=O)N[C@@H](CCC(N)=O)C(=O)N[C@@H](CCCNC(=N)N)C(=O)O` [FA–[DGln^4]LR], in data set [6], the “DHFR protein level with respect to control (in words)” value is recorded as “clear decrease”. Also, the “reduction of HSP90AA1 level” value in data set [7] came out at 10%.

As to `O=c1[nH]cc(F)c(=O)[nH]1` [5-FU, 5-fluorouracil], the “% Growth inhibition, single compound” value worked out at 28.4% in data set [3] (5FU 10µM), 36.5% in data set [3] (5FU 15µM), 45.3% in data set [4] (5FU 10µM) and 34.5% in data set [4] (5FU 15µM). In addition, in data set [8] (IGROV-1, Figures SI-10 and SI-11), the “hTS protein levels (in words)” value is “slightly increased”.

As to `Nc1nc2[nH]cc(CCc3ccc(C(=O)N[C@@H](CCC(=O)O)C(=O)O)cc3)c2c(=O)[nH]1` [PMX, pemetrexed], in data set [8] (IGROV-1, 5 μM, 48 h), the “upregulation of hTS protein levels” value is given as 2.5 fold.
